Experimental data: paper PMC12348107, “Saponins from Oxybasis rubra (L.) S.Fuentes, Uotila & Borsh: Comparative Assessment of Cytotoxic Potential Against a Wide Panel of Cancer Cell Lines” (Molecules, 2025)
Where “and” joins values, the source holds several entries; their conditions need not be identical. Equal entries are not always repeated. Where two headings read alike, the source gives them in different places.

How the values were obtained:
[1] = system: HTB-140 malignant melanoma cells; assay: LDH cytotoxicity assay, HTB-140; assay type: cell-based; conditions: Homo sapiens, LDH test, read-out: Cytotoxic activity expressed as IC50
Protocol: (§1) The cytotoxic activity was tested on human cancer and normal cell lines, grouped in several panels: skin (malignant melanoma HTB-140, malignant melanoma A375, melanoma WM793, and normal keratinocytes HaCaT), prostate (prostate carcinoma DU-145, prostate carcinoma PC3, and prostate epithelial cells PNT2), thyroid (thyroid carcinoma FTC133, thyroid carcinoma, undifferentiated 8505C), gastrointestinal panel (hepatocellular carcinoma HepG2, colon adenocarcinoma Caco-2, and colon adenocarcinoma HT29), and single line of lung carcinoma A549. Cells were grown at standard conditions (37 °C, 5% CO2, relative humidity) and culture media (DMEM/F12 for PNT2, WM793, HT29, A549; DMEM Low Glucose for DU-145; DMEM High Glucose for A375, HaCaT, A549; MEM with NEAA for Caco-2), supplemented with 10% fetal bovine serum (FBS) and 1% antibiotic solution (10,000 U penicillin and 10 mg streptomycin/mL). All cell lines, cell culture media, and supplements were from Merck (Seelze, Germany).
(§2) Before the experiment, cells were seeded onto 96-well plates for 24 h, at a density of 1.5 × 10^4 cells/ well. Then the tested compounds (5–100 μg/mL) were added and incubated for 24 and 48 h. Cell viability was measured with the lactate dehydrogenase (LDH) assay by Clontech (Clontech, Mountain View, CA, USA), as described previously. The absorbance was measured at 490 nm using a Biotek Synergy microplate reader (BioTek Instruments Inc., Winooski, VT, USA). Cell viability was expressed as a percentage of dead cells. Each experiment was conducted in triplicate. Doxorubicin was used as a reference cytostatic.
(§3) The results were expressed as mean (±SD). Data were analyzed using Statistica v.13.3 (StatSoft, Tulsa, OK, USA). The IC50 values were calculated using OriginPro 2020b (64-bit) 9.7.5.184 (Academic) (OriginLab Corporation, Northampton, MA, USA). One-way analysis of variance (ANOVA) and the post-hoc Tukey multiple comparison test were used. The statistical significance was defined at the probability level of p < 0.05. Principal component analysis (PCA) and hierarchical cluster analysis (HCA) were performed using Statistica v.13.3 (StatSoft, Tulsa, OK, USA). Prior to PCA, the Bartlett’s sphericity test was conducted, and the Kaiser-Meyer-Olkin Measure of Sampling Adequacy index (KMO) was examined. In the simple model, for each compound tested (1–4), the cell lines were the cases, and the different concentrations of the compound were the parameters. This was followed by a PCA model in which the cell lines were the parameters, and the compounds (at different concentrations) were the cases. All PCA models were based on a correlation matrix. Hierarchical cluster analysis (CA) based on standardized data was performed using Ward’s method and Euclidean distance. The results were grouped based on Mojena’s rule.

[2] = system: A375 malignant melanoma cells; assay: LDH cytotoxicity assay, A375; assay type: cell-based; conditions: Homo sapiens, A-375, LDH test, read-out: Cytotoxic activity expressed as IC50
Protocol: as §1, §2, §3

[3] = system: WM793 primary melanoma cells; assay: LDH cytotoxicity assay, WM793; assay type: cell-based; conditions: Homo sapiens, LDH test, read-out: Cytotoxic activity expressed as IC50
Protocol: as §1, §2, §3

[4] = LDH cytotoxicity assay, HaCaT; assay type: cell-based, human; conditions: human, HaCaT normal keratinocytes, HaCaT normal cells, LDH test, read-out: Cytotoxic activity expressed as IC50; for IC50 at 24 h: 24 h incubation; for IC50 at 48 h: 48 h incubation
Protocol: as §1, §2, §3

[5] = system: DU-145 metastatic prostate carcinoma cells; assay: LDH cytotoxicity assay, DU-145; assay type: cell-based, human; conditions: Homo sapiens, LDH test, read-out: Cytotoxic activity expressed as IC50
Protocol: as §1, §2, §3

[6] = system: PC3 metastatic prostate carcinoma cells; assay: LDH cytotoxicity assay, PC3; assay type: cell-based; conditions: Homo sapiens, LDH test, read-out: Cytotoxic activity expressed as IC50
Protocol: as §1, §2, §3

[7] = LDH cytotoxicity assay, PNT2; assay type: cell-based, human; conditions: human, PNT2 prostate epithelial cells (normal), PNT2 normal cells, LDH test, read-out: Cytotoxic activity expressed as IC50; for IC50 at 24 h: 24 h incubation; for IC50 at 48 h: 48 h incubation
Protocol: as §1, §2, §3

[8] = system: FTC133 follicular thyroid carcinoma cells; assay: LDH cytotoxicity assay, FTC133; assay type: cell-based; conditions: Homo sapiens, FTC-133, LDH test, read-out: Cytotoxic activity expressed as IC50
Protocol: as §1, §2, §3

[9] = system: 8505C undifferentiated thyroid carcinoma cells; assay: LDH cytotoxicity assay, 8505C; assay type: cell-based; conditions: Homo sapiens, LDH test, read-out: Cytotoxic activity expressed as IC50
Protocol: as §1, §2, §3

[10] = system: Caco-2 colon adenocarcinoma cells; assay: LDH cytotoxicity assay, Caco-2; assay type: cell-based; conditions: Homo sapiens, LDH test, read-out: Cytotoxic activity expressed as IC50
Protocol: as §1, §2, §3

[11] = system: HT29 colon adenocarcinoma cells; assay: LDH cytotoxicity assay, HT29; assay type: cell-based; conditions: Homo sapiens, HT-29, LDH test, read-out: Cytotoxic activity expressed as IC50
Protocol: as §1, §2, §3

[12] = system: HepG2 hepatocellular carcinoma cells; assay: LDH cytotoxicity assay, HepG2; assay type: cell-based; conditions: Homo sapiens, LDH test, read-out: Cytotoxic activity expressed as IC50
Protocol: as §1, §2, §3

[13] = system: A549 lung carcinoma cells; assay: LDH cytotoxicity assay, A549; assay type: cell-based, human; conditions: Homo sapiens, LDH test, read-out: Cytotoxic activity expressed as IC50
Protocol: as §1, §2, §3

[14] = system: human cancer and normal cell lines; assay: Cytotoxicity screening across the whole cell line panel; assay type: cell-based; conditions: all cell lines tested, 5–100 μg/mL, 24 and 48 h
Protocol: The cytotoxic activity was tested on human cancer and normal cell lines, grouped in several panels: skin (malignant melanoma HTB-140, malignant melanoma A375, melanoma WM793, and normal keratinocytes HaCaT), prostate (prostate carcinoma DU-145, prostate carcinoma PC3, and prostate epithelial cells PNT2), thyroid (thyroid carcinoma FTC133, thyroid carcinoma, undifferentiated 8505C), gastrointestinal panel (hepatocellular carcinoma HepG2, colon adenocarcinoma Caco-2, and colon adenocarcinoma HT29), and single line of lung carcinoma A549. […]
as §2, with “Then the tested compounds (5–100 μg/mL) were added and incubated for 24 and 48 h.” left out, “Each experiment was conducted in triplicate. Doxorubicin was used as a reference cytostatic.” left out
The results were expressed as mean (±SD). Data were analyzed using Statistica v.13.3 (StatSoft, Tulsa, OK, USA). The IC50 values were calculated using OriginPro 2020b (64-bit) 9.7.5.184 (Academic) (OriginLab Corporation, Northampton, MA, USA). […]

[15] = A549, 24 h, A549, 24 h incubation
[16] = A549, 48 h, A549, 48 h incubation

SMILES | IC50 ([1]; HTB-140, 24 h incubation) | IC50 ([2]; A375, 24 h incubation) | IC50 ([3]; WM793, 24 h incubation) | IC50 at 24 h [4] | IC50 ([5]; DU-145, 24 h incubation) | IC50 ([6]; PC3, 24 h incubation) | IC50 at 24 h [7] | IC50 ([8]; FTC133, 24 h incubation) | IC50 ([9]; 24 h incubation) | IC50 ([10]; Caco-2, 24 h incubation) | IC50 ([11]; HT29, 24 h incubation) | IC50 ([12]; HepG2, 24 h incubation) | IC50 [13, 15] | IC50 ([1]; HTB-140, 48 h incubation) | IC50 ([2]; A375, 48 h incubation) | IC50 ([3]; WM793, 48 h incubation) | IC50 at 48 h [4] | IC50 ([5]; DU-145, 48 h incubation) | IC50 ([6]; PC3, 48 h incubation) | IC50 at 48 h [7] | also measured
COc1cccc2c1C(=O)c1c(O)c3c(c(O)c1C2=O)C[C@@](O)(C(=O)CO)C[C@@H]3O[C@H]1C[C@H](N)[C@H](O)[C@H](C)O1 [DOX, doxorubicin] | 9.03 µM and 4.91 µg/mL | 790 nM and 0.43 µg/mL | > 40 µg/mL | 7.75 µM and 4.21 µg/mL | 4.53 µM and 2.46 µg/mL | > 40 µg/mL | 2.01 µM and 1.09 µg/mL | 8.56 µM and 4.65 µg/mL | > 40 µg/mL | 5.43 µM and 2.95 µg/mL | 2.06 µM and 1.12 µg/mL | 2.05 µM and 1.11 µg/mL | 2.01 µM and 1.09 µg/mL |  |  |  |  |  |  |  | 
CC1(C)CC[C@]2(C(=O)O[C@@H]3O[C@H](CO)[C@@H](O)[C@H](O)[C@H]3O)CC[C@]3(C)C(=CC[C@@H]4[C@@]5(C)CC[C@H](O)[C@@](C)(CO)[C@@H]5CC[C@]43C)[C@@H]2C1 [Compound 3, 28-O-β-D-glucopyranosyl hederagenin ester] | > 100 µg/mL | 73.5 µM and 46.7 µg/mL | > 100 µg/mL | 91.5 µM and 58.1 µg/mL | 56.8 µM and 36.1 µg/mL | > 100 µg/mL | 84.8 µM and 53.8 µg/mL | > 100 µg/mL | > 100 µg/mL | 42.6 µM and 27 µg/mL | 69.2 µM and 44 µg/mL | 127 µM and 80.5 µg/mL | 150 µM and 95.3 µg/mL | 155 µM and 98.2 µg/mL | 58 µM and 36.8 µg/mL | > 100 µg/mL | 68.2 µM and 43.3 µg/mL | 42.6 µM and 27 µg/mL | 118 µM and 74.8 µg/mL | 59.5 µM and 37.8 µg/mL | IC50 ([8]; FTC133, 48 h incubation): > 100 µg/mL; IC50 ([9]; 48 h incubation): > 100 µg/mL; IC50 ([10]; Caco-2, 48 h incubation): 38 µM and 24.2 µg/mL; IC50 ([11]; HT29, 48 h incubation): 60 µM and 38.1 µg/mL; IC50 ([12]; HepG2, 48 h incubation): 107 µM and 68 µg/mL; IC50 [13, 16]: 73.2 µM and 46.5 µg/mL
CC1(C)CC[C@]2(C(=O)O)CC[C@]3(C)C(=CC[C@@H]4[C@@]5(C)CC[C@H](O[C@@H]6O[C@H](CO)[C@@H](O)[C@H](O[C@@H]7O[C@H](CO)[C@@H](O)[C@H](O)[C@H]7O)[C@H]6O)[C@@](C)(CO)[C@@H]5CC[C@]43C)[C@@H]2C1 [Compound 1] | 33 µM and 26.2 µg/mL | 22.6 µM and 18 µg/mL | 34.6 µM and 27.6 µg/mL | 50.8 µM and 40.4 µg/mL | 20.7 µM and 16.5 µg/mL | 73.6 µM and 58.6 µg/mL | 51.1 µM and 40.7 µg/mL | 30.8 µM and 24.5 µg/mL | 45.1 µM and 35.9 µg/mL | 27.1 µM and 21.6 µg/mL | 35.7 µM and 28.4 µg/mL | 16.6 µM and 13.2 µg/mL | 18.7 µM and 14.9 µg/mL | 22.8 µM and 18.2 µg/mL | 16 µM and 12.7 µg/mL | 21.6 µM and 17.2 µg/mL | 33.9 µM and 27 µg/mL | 14.7 µM and 11.7 µg/mL | 44.2 µM and 35.2 µg/mL | 42.8 µM and 34.1 µg/mL | IC50 ([8]; FTC133, 48 h incubation): 17.1 µM and 13.6 µg/mL; IC50 ([9]; 48 h incubation): 32.4 µM and 25.8 µg/mL; IC50 ([10]; Caco-2, 48 h incubation): 24.2 µM and 19.3 µg/mL; IC50 ([11]; HT29, 48 h incubation): 31.4 µM and 25 µg/mL; IC50 ([12]; HepG2, 48 h incubation): 13.6 µM and 10.8 µg/mL; IC50 [13, 16]: 14.8 µM and 11.8 µg/mL; Overall cytotoxic activity across the panel, in words [14]: exhibited activity against all cell lines tested
CC1(C)CC[C@]2(C(=O)O)CC[C@]3(C)C(=CC[C@@H]4[C@@]5(C)CC[C@H](O)[C@@](C)(CO)[C@@H]5CC[C@]43C)[C@@H]2C1 [Compound 4, hederagenin] | > 100 µg/mL | > 100 µg/mL | > 100 µg/mL | > 100 µg/mL | 109 µM and 51.5 µg/mL | > 100 µg/mL | 195 µM and 92 µg/mL | > 100 µg/mL | > 100 µg/mL | 191 µM and 90.1 µg/mL | > 100 µg/mL | > 100 µg/mL | > 100 µg/mL | > 100 µg/mL | > 100 µg/mL | > 100 µg/mL | > 100 µg/mL | 42.9 µM and 20.3 µg/mL | 164 µM and 77.7 µg/mL | 159 µM and 75.1 µg/mL | IC50 ([8]; FTC133, 48 h incubation): > 100 µg/mL; IC50 ([9]; 48 h incubation): > 100 µg/mL; IC50 ([10]; Caco-2, 48 h incubation): 158 µM and 74.9 µg/mL; IC50 ([11]; HT29, 48 h incubation): 191 µM and 90.3 µg/mL; IC50 ([12]; HepG2, 48 h incubation): > 100 µg/mL; IC50 [13, 16]: 208 µM and 98.2 µg/mL
